# Data reported in patent US12102689B2, “Anti-CD22 antibody-maytansine conjugates and methods of use thereof” (R.P. Scherer Technologies, LLC, priority 2015, dated 2024).
# Legend:
# Format in all cases: cell-based
# [1] = system: Ramos cells; test: In vitro cytotoxicity (Cell Titer-Glo, 5 d); conditions: Homo sapiens, 120 h
# Experimental: (§1) The CD22-positive B-cell lymphoma cell lines, Ramos and WSU-DLCL2, were obtained from the ATCC and DSMZ cell banks, respectively. The cells were maintained in RPMI-1640 medium (Cellgro, Manassas, VA) supplemented with 10% fetal bovine serum (Invitrogen, Grand Island, NY) and Glutamax (Invitrogen). 24 h prior to plating, cells were passaged to ensure log-phase growth. On the day of plating, 5000 cells/well were seeded onto 96-well plates in 90 μL normal growth medium supplemented with 10 IU penicillin and 10 μg/mL streptomycin (Cellgro). Cells were treated at various concentrations with 10 μL of diluted analytes, and the plates were incubated at 37° C. in an atmosphere of 5% CO2. After 5 d, 100 μL/well of Cell Titer-Glo reagent (Promega, Madison, WI) was added, and luminescence was measured using a Molecular Devices SpectraMax M5 plate reader. GraphPad Prism software was used for data analysis.
# [2] = system: WSU-DLCL2 cells; test: In vitro cytotoxicity (Cell Titer-Glo, 5 d); conditions: Homo sapiens, WSUDLCL2, 120 h
# Experimental: as §1
# [3] = system: MDR1+ Ramos cells; test: In vitro cytotoxicity assay on MDR1-expressing cells; conditions: MDR1+ Ramos vs wild-type
# Experimental: (§2) MDR1 (ABCB1) cDNA was obtained from Sino Biological and cloned into a pEF plasmid with a hygromycin selection marker. An AMAXA Nucleofector™ instrument was used to electroporate Ramos (ATCC CRL-1923) and WSU-DLCL2 (DSMZ ACC 575) cells according to the manufacturer's instructions. After selection with hygromycin (Invitrogen 10687010), the pools were enriched with paclitaxel treatment (25 nM for up to 10 days) to further select cells with functional MDR1. The resulting cells were maintained under hygromycin selection in RPMI (Gibco 21870-092) supplemented with 10% fetal bovine serum (FBS) and 1× GlutaMax (Gibco 35050-079).
# (§3) Cell lines were plated in 96-well plates (Costar 3610) at a density of 5×10^4 cells/well in 100 μL of growth media and allowed to rest for 5 h. Serial dilution of test samples was performed in RPMI at 6× the final concentration and 20 μL was added to the cells. After incubation at 37° C. with 5% CO2 for 5 days, viability was measured using a Promega CellTiter 96® AQueous One Solution Cell Proliferation Assay (G3581) according to the manufacturer's instructions. GI50 curves were calculated in GraphPad Prism using the ADC's drug-to-antibody ratio (DAR) value to normalize the dose to the payload concentration.
# [4] = system: MDR1+ WSU-DLCL2 cells; test: as above
# Experimental: as §2, §3
structure (smiles),measurement,setting,value
"COc1cc2cc(c1Cl)N(C)C(=O)C[C@H](OC(=O)[C@H](C)N(C)C(C)=O)[C@]1(C)O[C@H]1[C@H](C)[C@@H]1C[C@@](O)(NC(=O)O1)[C@H](OC)/C=C/C=C(\C)C2 [free maytansine, maytansine]",IC50,[1],40 pM
same,IC50,[2],86 pM
same,fold less efficacious in MDR1-expressing cells,[3],~10 fold
same,potency on cotreatment with cyclosporin (MDR1 inhibitor),[4]; MDR1+ WSU-DLCL2 cells plus cyclosporin,restored the original potency
same,fold less efficacious in MDR1-expressing cells,[4]; MDR1+ WSU-DLCL2 vs wild-type,~10 fold
